Results: publication PMC2820545, “Mechanistic Characterization and Molecular Modeling of Hepatitis B Virus Polymerase Resistance to Entecavir” (PLoS ONE, 2010)
Like-named read-outs stand apart in the source and are kept apart here.

What was measured:
LVDr + T184L HBV = assay: HBV cell culture susceptibility (HBV-transfected HepG2 cells); assay type: cell-based; settings: Hepatitis B virus, averaged from 2 isolates, read-out: ETV EC50, Average ± SD (Range)
Procedure: (§1) HepG2 human hepatoma cells (American Type Culture Collection) were maintained as described. The laboratory clone of HBV was the genotype D ayw serotype clone kindly provided by Dr. Steven Goff in the plasmid pCMV-HBV [41]. Plasmids expressing HBV RT with resistance substitutions were prepared using QuikChange® site-directed mutagenesis (Stratagene, LaJolla, CA).
(§2) HepG2 cell culture susceptibility assays were performed in cells transfected with HBV expression plasmids and cultured in the presence of a titration of antiviral compounds, as described in detail elsewhere. The levels of replicated, released HBV virions was measured at day five through immunocapture of detergent released nucleocapsids with anti-HBV core Ab and quantification of encapsidated HBV DNA [5]. Data were plotted as percent inhibition and EC50 values calculated as the drug concentration where 50% inhibition of extracellular HBV occurred.

LVDr L180M + M204V HBV [1] = assay: as above; assay type: cell-based; settings: Hepatitis B virus
Procedure: as §1, §2

LVDr + T184G + S202I HBV = assay: as above; assay type: cell-based; settings: Hepatitis B virus, single patient isolate, read-out: ETV EC50, Average ± SD (Range)
Procedure: as §1, §2

Wildtype HBV = assay: as above; assay type: cell-based; settings: Hepatitis B virus
Procedure: as §1, §2

LVDr + S202G HBV = assay: as above; assay type: cell-based; settings: Hepatitis B virus, averaged from 2 isolates, read-out: ETV EC50, Average ± SD (Range)
Procedure: as §1, §2

LVDr + M250V HBV = assay: as above; assay type: cell-based; settings: Hepatitis B virus, averaged from 2 isolates, read-out: ETV EC50, Average ± SD (Range)
Procedure: as §1, §2

[2] = test system: HBV clones with ETVr signature substitutions in a LVDr background; assay: HBV cell culture susceptibility, ETVr clones as a group; assay type: cell-based, hepatitis B virus
Text: The levels of ETVr observed in cell culture and in vitro enzymatic assays of representative clones with ETVr substitutions are shown in Table 1. […] High levels of ETVr were observed when HBV clones contained ETVr signature substitutions in a LVDr background both in vitro (>400-fold) and in culture (>200-fold), respectively (Table 1). A full analysis of the different ETVr substitutions in culture has been reported for engineered and clinical ETVr HBV isolates.
as §2

LVDr L180M + M204V HBV [3] = test system: LVDr L180M + M204V HBV; parameters: method as in PMID 17267485, PMID 18362040; settings: cited from earlier work
[4] = test system: LVDr HBV with M250V or M250L; assay: HBV cell culture strand-specific EC50 determination; assay type: cell-based, hepatitis B virus; settings: strand-specific riboprobes
Text: (§3) ETV inhibits HBV polymerase synthesis of DNA in vitro during both RNA-directed first (minus) strand synthesis as well as DNA-directed second (plus) strand synthesis. To determine if ETVr was influenced by the template for DNA synthesis, cell culture EC50 determinations were made using strand-specific riboprobes to hybridize to the synthesized HBV DNA, in parallel with the typical double-stranded DNA probe. In this way an ETV EC50 for each strand of DNA synthesis during the HBV cell culture was determined. […] The minus strand EC50 was similar to the EC50 obtained using the double-stranded DNA probe. These observations are consistent with M250 changes in the primer-grip region of HBV RT influencing ETVr at least in part through the template for DNA synthesis. An independent observation supported this hypothesis; resistance was seen using nucleocapsids prepared in our typical manner (Materials & Methods), isolated from cells grown in PFA to inhibit minus strand synthesis, enhancing the in vitro minus-strand synthesis activity of the preparations. […]
(§4) Figure 5 Analysis of ETVr through strand-specific DNA synthesis in culture. […] The levels of HBV DNA synthesized in the presence of ETV was determined by HBV-specific probe hybridization to HBV nucleocapsid DNA from the cultures. […]

[5] = test system: wildtype, LVDr substituted and LVDr + T184 or S202 substituted HBV; assay: as above; assay type: cell-based, hepatitis B virus; settings: strand-specific riboprobes, minus vs plus strand synthesis
Text: as §3, §4

[6] = test system: wildtype or ETVr HBV polymerase; assay: Pyrophosphorolysis removal of incorporated ETV from HBV DNA; assay type: biochemical, hepatitis B virus; settings: wildtype or ETVr enzymes; data not shown
Text: The inability of ETV to be proofread by HIV RT has been reported by Tchesnokov et al..

C=C1[C@H](CO)[C@@H](O)C[C@@H]1n1cnc2c(=O)[nH]c(N)nc21 [ETV, Entecavir]
EC50 (LVDr + T184L HBV): 0.738 ± 0.119 µM | EC50 (LVDr L180M + M204V HBV [1]; Cell culture, LVDr L180M + M204V, single isolate, read-out: ETV EC50, Average ± SD (Range)): 0.0304 ± 0.0216 µM | EC50 (LVDr L180M + M204V HBV [1]; panel of 15 LVDr isolates, read-out: average ETV EC50): 0.0311 µM | EC50 (LVDr + T184G + S202I HBV): > 4 µM | EC50 (Wildtype HBV; Cell culture, Wildtype HBV, single isolate, read-out: ETV EC50, Average ± SD (Range)): 0.003 ± 0.0015 µM | EC50 (Wildtype HBV; panel of 76 wildtype isolates, read-out: average ETV EC50): 0.0034 µM | EC50 (LVDr + S202G HBV): 1.21 µM | EC50 (LVDr + M250V HBV): 3.08 µM | level of ETVr in culture [2]: > 200 fold | cross-resistance to ETV in culture (LVDr L180M + M204V HBV [3]): approximately 8 fold | strand-specific ETV EC50, first (minus) strand versus second (plus) strand [4]: increased relative to that for the second (plus) strand | strand-specific ETV EC50, both strands of HBV DNA compared [5]: nearly equivalent levels of susceptibility | removal of ETV incorporated into HBV DNA using pyrophosphorolysis [6]: unable to demonstrate removal
